Experimental data taken from the supplement of paper PMC10307832.

What was measured:
Experiment in all cases: relative viability (nuclei count vs DMSO), 5 days (fraction); higher = more cells survive
Tivantinib + AZD7762 = compound: O=C1NC(=O)[C@@H](c2cn3c4c(cccc24)CCC3)[C@@H]1c1c[nH]c2ccccc12 [Tivantinib] + NC(=O)Nc1cc(-c2cccc(F)c2)sc1C(=O)N[C@H]1CCCNC1 [AZD7762] (partner 0.2 µM)
Outline: (§1)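 Relative viability equals treated-well nuclei counts divided by vehicle-well nuclei counts. Counts came from 4× images of lung cancer cell lines grown in 1536-well plates for 5 days after pin-tool dosing on the day after seeding. Dosing used one drug alone or a fixed anchor-drug dose plus five library-drug doses (not always all listed) in √10 steps, and values are medians of duplicate plates.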

Crenolanib + Crizotinib = compound: CC1(COc2ccc3c(c2)ncn3-c2ccc3cccc(N4CCC(N)CC4)c3n2)COC1 [Crenolanib] + C[C@@H](Oc1cc(-c2cnn(C3CCNCC3)c2)cnc1N)c1c(Cl)ccc(F)c1Cl [Crizotinib] (partner 1 µM)
Outline: as §1

Crenolanib + Bortezomib = compound: CC1(COc2ccc3c(c2)ncn3-c2ccc3cccc(N4CCC(N)CC4)c3n2)COC1 [Crenolanib] + CC(C)C[C@H](NC(=O)[C@H](Cc1ccccc1)NC(=O)c1cnccn1)B(O)O [Bortezomib] (partner 0.002 µM)
Outline: as §1

Tivantinib + Bortezomib = compound: O=C1NC(=O)[C@@H](c2cn3c4c(cccc24)CCC3)[C@@H]1c1c[nH]c2ccccc12 [Tivantinib] + CC(C)C[C@H](NC(=O)[C@H](Cc1ccccc1)NC(=O)c1cnccn1)B(O)O [Bortezomib] (partner 0.002 µM)
Outline: as §1

Cell Line	relative viability (Tivantinib + AZD7762; first compound 0.01 µM)	relative viability (Tivantinib + AZD7762; first compound 0.03162 µM)	relative viability (Tivantinib + AZD7762; first compound 0.1 µM)	relative viability (Tivantinib + AZD7762; first compound 0.3162 µM)	relative viability (Crenolanib + Crizotinib; first compound 0.01 µM)	relative viability (Crenolanib + Crizotinib; first compound 0.03162 µM)	relative viability (Crenolanib + Crizotinib; first compound 0.1 µM)	relative viability (Crenolanib + Crizotinib; first compound 0.3162 µM)	relative viability (Crenolanib + Crizotinib; first compound 1 µM)	relative viability (Crenolanib + Bortezomib; first compound 0.03162 µM)	relative viability (Crenolanib + Bortezomib; first compound 0.1 µM)	relative viability (Crenolanib + Bortezomib; first compound 0.3162 µM)	relative viability (Crenolanib + Bortezomib; first compound 1 µM)	relative viability (Tivantinib + Bortezomib; first compound 0.01 µM)	relative viability (Tivantinib + Bortezomib; first compound 0.03162 µM)	relative viability (Tivantinib + Bortezomib; first compound 0.1 µM)	relative viability (Tivantinib + Bortezomib; first compound 0.3162 µM)	relative viability (Crenolanib + Bortezomib; first compound 0.01 µM)
NCI-H2342	0.505	0.515	0.432	0.39	–	–	–	–	–	–	–	–	–	–	–	–	–	–
SK-MES-1	–	–	–	–	1	1	0.857	1.02	0.973	–	–	–	–	–	–	–	–	–
EPLC-272H	0.278	0.284	0.21	0.268	–	0.855	0.877	0.918	1.01	0.766	0.747	0.887	0.874	1.16	0.813	0.741	0.608	–
HCC-44	1.04	1.05	1.08	0.985	0.823	0.84	0.739	0.881	0.848	0.876	0.856	0.878	0.833	0.87	0.975	0.883	0.915	0.944
201T	0.602	0.62	0.623	0.611	1.04	1.02	1.01	1.04	0.976	1.12	1.06	1.04	1.07	1.06	1.06	1.09	1.1	1.06
HOP-62	0.503	0.62	0.515	0.667	0.87	1.03	0.984	0.821	1.02	0.488	0.743	0.317	0.309	0.948	–	0.591	1.05	1.01
NCI-H650	1.17	0.818	1	1.21	0.968	0.706	0.805	0.5	0.644	0.767	0.769	0.855	0.68	0.723	–	0.772	0.874	0.944
NCI-H2085	1.01	0.944	0.942	0.813	0.942	0.993	0.902	0.804	0.845	1.1	1.07	1.11	0.968	0.994	0.972	1.02	1.06	1.05
NCI-H596	0.994	0.975	1.09	1.38	1.01	1.07	0.87	0.904	1.04	1.07	0.998	0.981	1.17	1.19	1.09	1.78	0.936	0.929
SK-LU-1	–	–	–	–	1	0.968	0.644	0.876	0.85	1.11	0.937	1.33	1	1.07	0.954	1.32	1.05	1.42
A-427	0.792	0.829	0.749	0.651	0.854	0.946	0.804	0.87	1.02	1.12	0.987	1.01	1.03	0.997	1	0.854	1.06	0.961
NCI-H460	0.513	0.739	0.517	0.64	0.935	0.924	0.904	1.19	0.831	1.2	1.01	1.6	0.954	1.06	1.04	0.975	1.36	1.05
NCI-H1734	0.6	0.487	0.505	0.478	0.684	0.708	0.657	0.778	0.693	1.09	0.919	1.22	0.93	0.932	1.01	0.843	1	0.979
NCI-H1915	0.654	0.771	0.629	0.665	0.9	0.896	0.868	0.856	0.855	0.974	0.929	1.03	0.772	0.982	0.961	0.946	0.975	1
Calu-6	–	–	–	–	0.812	0.814	0.787	0.854	0.835	0.97	1.03	1.1	1.02	1.08	1.07	0.969	0.738	1.06
SW 1573	–	–	–	–	0.748	0.886	0.795	0.834	0.884	1.15	0.996	1.29	1.15	1.16	1.17	1.1	1.29	1.04
RERF-LC-KJ	1.08	0.921	0.952	0.92	0.796	0.848	0.825	0.852	0.886	1.15	1.11	1.1	1.12	1.18	1.22	1.19	0.963	1.26
EMC-BAC-2	1.14	1.09	1.08	1.22	0.757	0.774	0.795	0.791	0.775	1.03	1.01	1.18	1.01	1.05	0.989	1.04	0.969	1.19
LK-2	0.447	0.214	0.288	0.363	0.238	0.24	0.219	0.227	0.213	–	–	–	–	–	–	–	–	–
NCI-H2228	–	–	–	–	0.483	0.38	0.407	0.577	0.516	0.922	0.776	1.01	0.887	0.886	0.908	1.13	0.932	1.11
NCI-H322M	0.613	0.419	0.571	–	0.96	0.807	1	0.903	1.05	0.923	1.1	1.27	1.4	1.17	1.15	1.22	1.06	1.36
NCI-H1993	0.768	0.715	0.656	0.455	0.875	0.871	0.875	0.806	0.9	1.11	1.04	1.06	0.994	1.16	1.05	1.14	0.79	0.82
NCI-H1944	0.513	0.511	0.472	0.426	1.05	1.19	1.03	1.21	1.07	–	–	–	–	–	–	–	–	–
LXF-289	1.14	1.13	1.07	1.08	0.81	0.745	0.777	0.753	0.81	0.996	0.935	1	0.95	1.04	1	0.922	1.04	1.07

Cell Line	relative viability (Tivantinib + AZD7762; first compound 0.01 µM)	relative viability (Tivantinib + AZD7762; first compound 0.03162 µM)	relative viability (Tivantinib + AZD7762; first compound 0.1 µM)	relative viability (Tivantinib + AZD7762; first compound 0.3162 µM)	relative viability (Crenolanib + Crizotinib; first compound 0.01 µM)	relative viability (Crenolanib + Crizotinib; first compound 0.03162 µM)	relative viability (Crenolanib + Crizotinib; first compound 0.1 µM)	relative viability (Crenolanib + Crizotinib; first compound 0.3162 µM)	relative viability (Crenolanib + Crizotinib; first compound 1 µM)	relative viability (Crenolanib + Bortezomib; first compound 0.03162 µM)	relative viability (Crenolanib + Bortezomib; first compound 0.1 µM)	relative viability (Crenolanib + Bortezomib; first compound 0.3162 µM)	relative viability (Crenolanib + Bortezomib; first compound 1 µM)	relative viability (Tivantinib + Bortezomib; first compound 0.01 µM)	relative viability (Tivantinib + Bortezomib; first compound 0.03162 µM)	relative viability (Tivantinib + Bortezomib; first compound 0.1 µM)	relative viability (Tivantinib + Bortezomib; first compound 0.3162 µM)	relative viability (Crenolanib + Bortezomib; first compound 0.01 µM)
NCI-H2405	0.877	0.806	0.753	0.828	0.899	0.94	0.623	0.809	0.837	0.964	0.921	1.05	0.976	0.582	0.982	0.848	0.976	0.998
NCI-H2023	–	–	–	–	0.708	0.706	0.639	0.814	0.622	0.95	0.934	1.14	0.578	1.06	0.654	0.915	0.826	1.03
HCC-366	0.229	0.403	0.316	0.237	0.487	0.466	0.481	1.04	0.462	1.1	0.902	1.12	0.949	0.996	1.16	1.03	1.03	1.01
HCC-78	0.688	0.786	0.651	0.425	0.371	0.367	0.393	0.34	0.31	0.454	0.638	0.499	0.438	0.593	0.319	0.38	–	0.309
COR-L23	–	–	–	–	0.678	0.722	0.577	0.718	0.667	1.16	0.921	1.13	1.03	0.977	0.93	0.942	0.996	0.983
HCC-827	0.186	0.238	0.297	–	0.938	0.885	0.932	0.964	0.884	0.962	0.963	1.04	0.933	1.02	1.12	1.03	1.11	1.08
NCI-H1299	–	–	–	–	0.998	0.914	0.924	0.952	0.891	1.02	0.968	1.04	1.03	1	1	1.04	1.03	1.04
NCI-H661	–	–	–	–	1.04	1.08	–	1.05	1.15	0.853	0.851	0.831	0.745	0.897	0.782	0.9	–	0.807
NCI-H1793	0.355	0.645	0.412	0.378	–	–	–	–	–	–	–	–	–	–	–	–	–	–
COR-L 105	–	–	–	–	0.845	0.604	0.731	0.838	0.73	0.863	0.646	0.825	0.676	0.754	0.398	0.671	0.354	0.95
NCI-H2009	–	–	–	–	1.07	1.01	1.01	1.06	0.815	1.02	1.01	0.959	0.813	1.01	0.646	1.01	1.1	1.14
IA-LM	–	–	–	–	0.925	0.9	0.631	1.29	1.26	0.771	0.726	0.949	0.978	0.855	0.942	0.743	0.848	0.806
NCI-H1563	–	–	–	–	0.867	0.841	0.862	0.848	0.847	0.901	0.897	0.865	0.829	0.831	0.748	0.897	0.809	0.926
NCI-H520	–	–	–	–	0.743	0.915	0.802	0.933	0.983	0.528	0.824	0.779	0.628	0.687	0.235	0.505	0.595	0.481
NCI-H1648	–	0.61	0.767	0.479	–	–	–	–	–	–	–	–	–	–	–	–	–	–
NCI-H1650	–	–	–	–	1.08	0.917	0.916	1.1	0.696	0.194	0.197	0.205	0.203	0.215	0.213	0.225	0.176	0.217
A549	–	–	–	–	0.853	0.76	0.769	0.99	0.717	–	–	–	–	–	–	–	–	–
NCI-H522	0.829	0.812	0.864	0.612	–	–	–	–	–	–	–	–	–	–	–	–	–	–
NCI-H2170	0.878	0.822	0.794	–	1.21	1.18	1.19	1.18	1.17	–	–	–	–	–	–	–	–	–
SW 900	0.682	0.464	0.5	0.496	–	–	–	–	–	–	–	–	–	–	–	–	–	–
NCI-H1395	0.406	0.405	0.395	0.371	–	–	–	–	–	–	–	–	–	–	–	–	–	–
NCI-H358	0.443	0.576	0.497	0.279	0.701	0.584	0.592	0.454	0.661	–	–	–	–	–	–	–	–	–
EBC-1	–	–	–	–	0.18	0.198	0.188	0.134	0.197	0.581	0.573	0.559	0.462	0.611	0.596	0.557	0.465	0.798
